Holding throughout (assay): MIC, serial dilutions in Müller-Hinton broth
What all share (type): cell-based

In one assay the test system is A. baumannii 1425 PR. Here is the method:
(§1) A comparative assessment of the spectrum of antibacterial action was carried out on archival and clinical strains of gram-positive and gram-negative microorganisms in accordance with the [Opredeleniye chuvstvitel'nosti mikroorganizmov k antibakterial'nym preparatam (Metodicheskiye ukazaniya MUK 4.2.1890-04). Utverzhdeny i vvedeny v deystviye Glavnym gosudarstvennym sanitarnym vrachom Rossiyskoy Federatsii G. G. Onishchenko 04.03.2004 g. Determination of the sensitivity of microorganisms to antibacterial drugs (Guidelines MUK 4.2.1890-04). Approved and put into effect by the Chief State Sanitary Doctor of the Russian Federation G. G. Onishchenko on 4 Mar. 2004].
(§2) The value of the minimum inhibitory concentration (MIC) was determined by the method of serial dilutions on Müller-Hinton broth using 96-well sterile plates. Two-fold dilutions of the test substances in a nutrient medium were prepared. The final concentrations were 1-128 ug/ml. The growth of cultures was assessed visually, comparing the growth of microorganisms in the presence of test compounds with the growth of culture without them. […] The first lowest concentration of the studied substance (from a series of consecutive dilutions), where bacterial growth is not visually determined, is considered to be the minimum inhibitory concentration (MIC). MIC was determined by the method of serial dilutions in broth with increment=2, so the differences of neighboring dilutions are not considered to be significant. In each experience there is a positive (broth with growing culture) and a negative (broth without growing culture) control.
(§3) To determine the MIC, 10 μl of culture medium was taken from those wells in which growth was not observed, and inoculation was performed on a dense Müller-Hinton broth. For the preparation of the inoculum, a pure, daily culture of gram-positive and gram-negative microorganisms grown on a dense nutrient medium was used. Nutrient medium is Müller-Hinton broth, which was prepared from dry media (Müller-Hinton broth, Acumedia, Baltimore), cultivation was carried out on agarized Müller-Hinton broth, including an additional 2% agar. The media were autoclaved at 121° C. for 15 minutes. In a sterile isotonic solution of sodium chloride, a suspension of microorganisms was prepared, adjusting the inoculum density to 0.5 according to the McFarland standard (1.5·10^8 CFU/ml). Then, the resulting inoculum was diluted to a concentration of 10^7 CFU/ml with Müller-Hinton broth. The inoculum was used within 15 minutes after preparation; the purity of the bacterial strains was monitored before each experiment.
(§4) 100 μl of Müller-Hinton broth was added to the wells of each plate; The tested substance was introduced into the first well at a concentration of 128 μg/ml in a volume of 100 μl and its concentration was adjusted to 0.5 μg/ml by consecutive two-fold dilution. Then, the prepared inoculum (100 μI) was added to each well, thereby diluting twice the concentration of the studied compounds. […] In addition, the purity of nutrient media and solvents was monitored. The plates were incubated in a thermostat at 37° C. for 24 hours. The growth of cultures was assessed visually, comparing the growth of microorganisms in the presence of test compounds with the growth of culture without them.
(§5) For the MIC was taken the minimum concentration of the studied compounds, providing complete suppression of the visible growth of the studied strains of microorganisms. The maximum value obtained in three independent experiments was taken as the MIC of the compound.

The subject of a further assay is E. coli MG 1655. The procedure:
as §1, §2, §3, §4, §5

For the next assay, the system named is E. faecium 27. Here is the method: as §1, §2, §3, §4, §5
The next assay concerns E. faecium 31. Here is the method: as §1, §2, §3, §4, §5
A further assay concerns Kl. pneumoniae 1435 PR. Here is the method:
as §1, §2, §3, §4, §5

The test system of a further assay is Kl. pneumoniae 1953 PR. The procedure: as §1, §2, §3, §4, §5
A further assay deals with Kl. pneumoniae 645 PR. The procedure:
as §1, §2, §3, §4, §5

In another assay the test system is Klebsiella spp. 10. The procedure:
as §1, §2, §3, §4, §5

The test system of a further assay is M. luteus. The procedure:
as §1, §2, §3, §4, §5

The subject of the next assay is Moraxella sp. 723. The procedure: as §1, §2, §3, §4, §5
Another assay has as its system Moraxella sp.829. Here is the method:
as §1, §2, §3, §4, §5

For a further assay, the system named is Moraxella sp.834. Here is the method:
as §1, §2, §3, §4, §5

A further assay has as its system Proteus spp. 17. The procedure: as §1, §2, §3, §4, §5
In a further assay the test system is Ps. aeruginosa 1202. The procedure:
as §1, §2, §3, §4, §5

For another assay, the system named is S. aureus 1065 MRSA. The procedure:
as §1, §2, §3, §4, §5

Another assay has as its system S. aureus 1131 MRSA. The procedure:
as §1, §2, §3, §4, §5

A further assay has as its system S. aureus 1145 MRSA. The procedure: as §1, §2, §3, §4, §5
A further assay concerns S. aureus 1167 MRSA. The procedure:
as §1, §2, §3, §4, §5

The next assay concerns S. aureus 2020 MRSA. The procedure: as §1, §2, §3, §4, §5
Another assay relates to S. aureus 20. Here is the method: as §1, §2, §3, §4, §5
A further assay concerns S. aureus ATCC 29213. Here is the method: as §1, §2, §3, §4, §5
Another assay concerns Serratia spp. 15. Here is the method:
as §1, §2, §3, §4, §5

Where two headings read alike, the source gives them in different places.

Usually MIC stands for the lowest concentration found to suppress growth.

For the molecule `CCCCCCCCCCCC[N+](C)(C)Cc1cnc(C[N+](C)(C)CCCCCCCCCCCC)c2c1COC(CC)O2` (stereo not drawn) [Compound I, 5,8-(Bis(methylene (N, N-dimethyl-N-dodecylammonium))-2-ethyl-4H-[1,3]dioxino [4,5-c]pyridiniumdichloride], the MIC with A. baumannii 1425 PR (Acinetobacter baumannii, A. baumannii 1425 PR, inoculum 10^7 CFU/ml, read-out: MIC) stood at 8 µg/mL; in the assay with E. coli MG 1655 (Escherichia coli, MG1655, E. coli MG 1655, inoculum 10^7 CFU/ml, read-out: MIC), 2 µg/mL; with E. faecium 27 (Enterococcus faecium, E. faecium 27, inoculum 10^7 CFU/ml, read-out: MIC), 0.03 µg/mL; in the assay on E. faecium 31 (Enterococcus faecium, E. faecium 31, inoculum 10^7 CFU/ml, read-out: MIC) it was 0.03 µg/mL; in the assay with Kl. pneumoniae 1435 PR (Klebsiella pneumoniae, Kl. pneumoniae 1435 PR, inoculum 10^7 CFU/ml, read-out: MIC), 32 µg/mL; in the assay with Kl. pneumoniae 1953 PR (Klebsiella pneumoniae, Kl. pneumoniae 1953 PR, inoculum 10^7 CFU/ml, read-out: MIC) it was 2 µg/mL. Besides, the MIC in the assay with Kl. pneumoniae 645 PR (Klebsiella pneumoniae, Kl. pneumoniae 645 PR, inoculum 10^7 CFU/ml, read-out: MIC) is 32 µg/mL; with Klebsiella spp. 10 (Klebsiella spp. 10, inoculum 10^7 CFU/ml, read-out: MIC), 8 µg/mL; in the assay on M. luteus (Micrococcus luteus, M. luteus, inoculum 10^7 CFU/ml, read-out: MIC), 2 µg/mL; in the assay on Moraxella sp. 723 (Moraxella sp. 723, inoculum 10^7 CFU/ml, read-out: MIC) it was 4 µg/mL; in the assay on Moraxella sp.829 (Moraxella sp.829, inoculum 10^7 CFU/ml, read-out: MIC) it was 4 µg/mL; in the assay on Moraxella sp.834 (Moraxella sp.834, inoculum 10^7 CFU/ml, read-out: MIC), 4 µg/mL. Further, the MIC in the assay on Proteus spp. 17 (Proteus spp. 17, inoculum 10^7 CFU/ml, read-out: MIC) came to 64 µg/mL; in the assay on Ps. aeruginosa 1202 (Pseudomonas aeruginosa, Ps. aeruginosa 1202, inoculum 10^7 CFU/ml, read-out: MIC), 32 µg/mL; in the assay with S. aureus 1065 MRSA (Staphylococcus aureus, S. aureus 1065 MRSA, inoculum 10^7 CFU/ml, read-out: MIC) it was 2 µg/mL; in the assay with S. aureus 1131 MRSA (Staphylococcus aureus, S. aureus 1131 MRSA, inoculum 10^7 CFU/ml, read-out: MIC) it was 2 µg/mL; in the assay on S. aureus 1145 MRSA (Staphylococcus aureus, S. aureus 1145 MRSA, inoculum 10^7 CFU/ml, read-out: MIC), 2 µg/mL; in the assay with S. aureus 1167 MRSA (Staphylococcus aureus, S. aureus 1167 MRSA, inoculum 10^7 CFU/ml, read-out: MIC) it was 4 µg/mL. Besides, the MIC with S. aureus 2020 MRSA (Staphylococcus aureus, S. aureus 2020 MRSA, inoculum 10^7 CFU/ml, read-out: MIC) came to 4 µg/mL; with S. aureus 20 (Staphylococcus aureus, S. aureus 20, inoculum 10^7 CFU/ml, read-out: MIC) it was 4 µg/mL; with S. aureus ATCC 29213 (Staphylococcus aureus, ATCC29213, S. aureus ATCC 29213, inoculum 10^7 CFU/ml, read-out: MIC), 4 µg/mL; in the assay with Serratia spp. 15 (Serratia spp. 15, inoculum 10^7 CFU/ml, read-out: MIC) it was 16 µg/mL.

In the case of “alkyldimethyl(phenylmethyl) ammonium chloride [Benzalconium chloride]”, the MIC with A. baumannii 1425 PR (A. baumannii 1425 PR, inoculum 10^7 CFU/ml) was 32 µg/mL; in the assay on E. coli MG 1655 (E. coli MG 1655, inoculum 10^7 CFU/ml) it was 2 µg/mL; against E. faecium 27 (E. faecium 27, inoculum 10^7 CFU/ml), 0.5 µg/mL; with E. faecium 31 (E. faecium 31, inoculum 10^7 CFU/ml) it was less than 0.5 µg/mL; in the assay with Kl. pneumoniae 1435 PR (Kl. pneumoniae 1435 PR, inoculum 10^7 CFU/ml), 32 µg/mL; in the assay with Kl. pneumoniae 1953 PR (Kl. pneumoniae 1953 PR, inoculum 10^7 CFU/ml) it was 16 µg/mL. In addition, the minimal inhibitory concentration (MIC) with Kl. pneumoniae 645 PR (Kl. pneumoniae 645 PR, inoculum 10^7 CFU/ml) is 16 µg/mL; in the assay with Klebsiella spp. 10 (Klebsiella spp. 10, inoculum 10^7 CFU/ml), 1 µg/mL; in the assay with M. luteus (M. luteus, inoculum 10^7 CFU/ml) it was 1 µg/mL; with Moraxella sp. 723 (Moraxella sp. 723, inoculum 10^7 CFU/ml), 4 µg/mL; against Moraxella sp.829 (Moraxella sp.829, inoculum 10^7 CFU/ml), 32 µg/mL; against Moraxella sp.834 (Moraxella sp.834, inoculum 10^7 CFU/ml) it was 2 µg/mL. Besides, the MIC is 16 µg/mL with Proteus spp. 17 (Proteus spp. 17, inoculum 10^7 CFU/ml); more than 64 µg/mL in the assay on Ps. aeruginosa 1202 (Ps. aeruginosa 1202, inoculum 10^7 CFU/ml); 4 µg/mL against S. aureus 1065 MRSA (S. aureus 1065 MRSA, inoculum 10^7 CFU/ml); 2 µg/mL with S. aureus 1131 MRSA (S. aureus 1131 MRSA, inoculum 10^7 CFU/ml); 2 µg/mL with S. aureus 1145 MRSA (S. aureus 1145 MRSA, inoculum 10^7 CFU/ml); 2 µg/mL against S. aureus 1167 MRSA (S. aureus 1167 MRSA, inoculum 10^7 CFU/ml). Besides, the MIC was 4 µg/mL against S. aureus 2020 MRSA (S. aureus 2020 MRSA, inoculum 10^7 CFU/ml); less than 0.5 µg/mL against S. aureus 20 (S. aureus 20, inoculum 10^7 CFU/ml); 2 µg/mL in the assay with S. aureus ATCC 29213 (S. aureus ATCC 29213, inoculum 10^7 CFU/ml); 2 µg/mL with Serratia spp. 15 (Serratia spp. 15, inoculum 10^7 CFU/ml).

Turning to `CCCCCCCCCCCCCC(=O)NCCC[N+](C)(C)Cc1ccccc1.O.[Cl-]` [Miramistin, benzyldimethyl [3-(myristoylamino)propyl]-ammonium chloride monohydrate], the MIC was 64 µg/mL with A. baumannii 1425 PR (Acinetobacter baumannii, 1425PR); 8 µg/mL with E. coli MG 1655 (Escherichia coli, MG1655); 32 µg/mL in the assay with E. faecium 27 (Enterococcus faecium, 27); 4 µg/mL against E. faecium 31 (Enterococcus faecium, 31); 64 µg/mL in the assay with Kl. pneumoniae 1435 PR (Klebsiella pneumoniae, 1435PR); 64 µg/mL in the assay on Kl. pneumoniae 1953 PR (Klebsiella pneumoniae, 1953PR). Also, the MIC was 64 µg/mL against Kl. pneumoniae 645 PR (Klebsiella pneumoniae, 645PR); 64 µg/mL in the assay on Klebsiella spp. 10 (Klebsiella, SPP.10); 2 µg/mL in the assay on M. luteus (Micrococcus luteus); 32 µg/mL with Moraxella sp. 723 (Moraxella, SP.723); 32 µg/mL in the assay on Moraxella sp.829 (Moraxella, SP.829); 32 µg/mL in the assay on Moraxella sp.834 (Moraxella, SP.834). Further, the MIC in the assay on Proteus spp. 17 was more than 64 µg/mL; in the assay with Ps. aeruginosa 1202 (Pseudomonas aeruginosa, 1202), more than 64 µg/mL; against S. aureus 1065 MRSA (Staphylococcus aureus, MRSA) it was 8 µg/mL; against S. aureus 1131 MRSA (Staphylococcus aureus, MRSA), 4 µg/mL; with S. aureus 1145 MRSA (Staphylococcus aureus, MRSA) it was 8 µg/mL; in the assay on S. aureus 1167 MRSA (Staphylococcus aureus, MRSA) it was 4 µg/mL. Further, the MIC in the assay with S. aureus 2020 MRSA (Staphylococcus aureus, MRSA) is 8 µg/mL; against S. aureus 20 (Staphylococcus aureus, 20), 32 µg/mL; against S. aureus ATCC 29213 (Staphylococcus aureus, ATCC29213), 16 µg/mL; in the assay on Serratia spp. 15 (Serratia, SPP.15) it was more than 64 µg/mL.

(Values after US11014934B2, “Antiseptic drug” (AO “TATKHIMFARMPREPARATY”, priority 2017, dated 2021).)
